Assay results reported in patent publication US20050019746A1, “Apoptosis-related kinase/GPCRs” (EiRx Therapeutics Limited, priority 2003, published 2005).

How the values were obtained:
Format in all cases: cell-based, human
[1] = test system: target gene mRNA in TF1 cells; assay: Knockdown by RNAi, QPCR, TF1 cells; details: 48 hrs post transfection, relative to missense control; for % Knockdown by RNAi, TF1 + GMCSF: TF1 with GM-CSF; for % Knockdown by RNAi, TF1 − GMCSF: TF1 without GM-CSF
Experimental: In the case of TF1 cells, 2×10^5 cells/ well are transfected with 2 μg of siRNA in each well of a 24 well plate using […] DMRIE-C reagent (InVitrogen) per ml of Optimem (Gibco). Cells are simultaneously transfected in parallel with a control missense siRNA. Recombinant GM-CSF at 2 ng/ml is added to the OPTI-MEM media during transfection. The transfection media is replaced after four hours with fresh RPMI 1640 containing […] GMSCF and 10% FCS and incubated at 37° C. Twenty-four hours post-transfection, the media are changed; RPMI 1640+10% FCS containing […] GMSCF is added to 3 wells and RPMI 1640+10% FCS without GMSCF is added to the other 3 wells. These cells are harvested 48 and 72 hours post transfection for QPCR and phenotypic assays. Control TF1 cells, which are not transfected, are similarly treated. Samples are labeled T48+G, T48−G, according to the time of harvesting post-transfection and the presence (+G) or absence (−G) of GM-CSF in the media. RNA is isolated, cDNA is reverse transcribed and QPCR is performed as described above. Short Term (72 hrs post transfection) Cell Viability/Apoptosis assays employed are discussed below.
After DMRIE transfections with siRNA Oligos against the apoptosis associated genes identified herein, or controls, cells are harvested at 24 or 48 hours post transfection as stated previously. RNA is then extracted using RNeasy Miniprep columns (Qiagen 74104) after lysis on KIAshredder columns (Qiagen 79654). RNA is quantified by spectrophotometric analysis and 1 μg is reverse transcribed into cDNA using SuperScriptII RNAseH-Reverse Transcriptase (Invitrogen 18064-014). The levels of transcript are compared by QPCR as described in detail in Example 3, relative to missense controls. QPCR primers are designed to amplify a PCR product of approximately 100 to 300 nucleotides in length from the CDS, following the guidelines outlined in the Quantitect SYBR Green PCR handbook from Qiagen.
Two template standards are used for quantitative PCR assessment of mRNA levels: • 1. A control RPS13 i.e. Ribosomal Protein Sub unit 13 (NM_001017) amplified PCR product diluted to [1000,100,10,1 and 0.1 fg] respectively, used to quantify the level of transcript; • 2. RPS13 amplified from sample templates as separate PCR reactions for normalisation purposes.
The cDNA templates from appropriate cell lines transfected with either gene specific, positive control e.g. Survivin or missense control siRNA are amplified with gene-specific QPCR primers using QuantiTectSYBR Green PCR kit (Qiagen 204143) on a DNA Engine Opticon System (MJ Research) (as described in detail in Example 3). The amplification conditions include a 95° C. step for 15 min for initial activation of HotStarTaq DNA polymerase, followed by 35 cycles of (15 s at 94° C., 30 s at 60° C., 30 s at 72°). The fluorescence of the samples at 521 nm is read between the annealing and extension steps of the protocol. The melting curves are calculated at the end of the 35 cycles and confirm product homogeneity.
A standard curve is plotted using the log [template quantity] of the RPS 13 control template dilutions (as above) versus cycle number at which the fluorescence intensity measured in the well exceeds the level specified in the cycle threshold parameters (the C(T) value). An estimate of the quantity of initial template in treatment samples is determined from this plot and the amount of target mRNA present in each sample is normalized across samples by calculating the ratio of target to RPS13 for each sample.
The normalised expression values are used to estimate percentage knockdown of target with reference to the control, transfected, cells (in this case cells transfected with missense siRNA).

SKOV3 cells = assay: 10-14 day Clonagenicity Assay (MTT), SKOV3; details: for percentage survival relative to the missense, n = 1: independent experiment n = 1, dilution point of maximum toxicity; for percentage survival relative to the missense, n = 3: independent experiment n = 3, dilution point of maximum toxicity; for percentage survival relative to the missense, n = 2: independent experiment n = 2, dilution point of maximum toxicity
Summary of the method: (§1)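 Read-out is MTT conversion 10-14 days after siRNA transfection, expressed as average percentage viability relative to missense oligomer at the seed density of maximum toxicity. Oligomers were applied at 2 μg/ml for 4 hours to cells plated over six 1-in-2 dilutions. Cytotoxicity required reduced viability at two or more seed densities.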

PC3 cells = assay: 10-14 day Clonagenicity Assay (MTT), PC3; details: for percentage survival relative to the missense, n = 3: independent experiment n = 3, dilution point of maximum toxicity; for percentage survival relative to the missense, n = 1: independent experiment n = 1, dilution point of maximum toxicity
Summary of the method: as §1

A498 cells = assay: 10-14 day Clonagenicity Assay (MTT), A498; details: for percentage survival relative to the missense, n = 1: independent experiment n = 1, dilution point of maximum toxicity; for percentage survival relative to the missense, n = 3: independent experiment n = 3, dilution point of maximum toxicity
Summary of the method: as §1

Substance | % Knockdown by RNAi, TF1 + GMCSF [1] [%] | percentage survival relative to the missense, n = 1 (SKOV3 cells) [%] | percentage survival relative to the missense, n = 3 (SKOV3 cells) [%] | percentage survival relative to the missense, n = 3 (PC3 cells) [%] | percentage survival relative to the missense, n = 1 (A498 cells) [%] | percentage survival relative to the missense, n = 3 (A498 cells) [%] | % Knockdown by RNAi, TF1 − GMCSF [1] [%] | percentage survival relative to the missense, n = 2 (SKOV3 cells) [%] | percentage survival relative to the missense, n = 1 (PC3 cells) [%]
siRNA MKNK: sense UACAUGGCCCCUGAGGUAGtt, antisense CUACCUCAGGGGCCAUGUAtt (sense UACAUGGCCCCUGAGGUAGTT; antisense CUACCUCAGGGGCCAUGUATT; chemistry not given here) | 65 | 14 | 34.3 | 8.4 | 15.4 | 2.7 |  |  | 
siRNA P14KB: sense GCUACGGAAGCUGAUCCUCtt, antisense GAGGAUCAGCUUCCGUAGCtt (sense GCUACGGAAGCUGAUCCUCTT; antisense GAGGAUCAGCUUCCGUAGCTT; chemistry not given here) |  | 12.3 | 44.8 | 8.4 | 19.3 | 15.1 | 40 | 56 | 
siRNA PSKH1: sense GAACCUGCACCGCUCCAUAtt, antisense UAUGGAGCGGUGCAGGUUCtt (sense GAACCUGCACCGCUCCAUATT; antisense UAUGGAGCGGUGCAGGUUCTT; chemistry not given here) |  | 48 |  |  | 54.8 | 10 | 60 |  | 29.8
siRNA Survivin: positive control siRNA, sense GAACUGGCCCUUCUUGGAGtt, antisense CUCCAAGAAGGGCCAGUUCtt (sense GAACUGGCCCUUCUUGGAGTT; antisense CUCCAAGAAGGGCCAGUUCTT; chemistry not given here) [reference compound] | 20 | 43.9 | 85.7 | 83.6 | 35.9 | 75.9 |  | 90.8 | 39.2
